Measurements: patent US20090163586A1, “Bis-(Sulfonylamino) Derivatives in Therapy 205” (AstraZeneca AB, priority 2007, published 2009)
pIC50: −log10 of the molar value.

Molecular target: T1, human mPGES-1 (Homo sapiens, UniProt O14684)
T1 sequence (O14684 1-152): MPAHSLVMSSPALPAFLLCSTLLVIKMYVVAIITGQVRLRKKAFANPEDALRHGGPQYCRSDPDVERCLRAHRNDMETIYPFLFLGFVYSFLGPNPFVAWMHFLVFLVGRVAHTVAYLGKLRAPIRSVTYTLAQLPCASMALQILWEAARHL
Assay: Microsomal prostaglandin E synthase biochemical assay
Conditions: microsome preparation containing human mPGES-1; PGH2 10.8 μM, GSH 2.5 mM, pH 6.8; PGE2 by HTRF; average of at least n=2
Method in brief: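 Human mPGES-1 microsomes at 2 μg/mL were pre-incubated 15 min with compound (60 μM to 0.002 μM) in 50 mM potassium phosphate pH 6.8 with 2.5 mM GSH. The reaction was started with 10.8 μM PGH2 and stopped after 1 minute with acidic ferric chloride/citrate. PGE2 was quantified by HTRF; IC50 is the mean of at least 2 runs.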

pIC50	Compound
6.21	NS(=O)(=O)c1cnccc1NS(=O)(=O)CCc1ccc(-c2cc3ccccc3o2)cc1 [Example 204, 4-(2-(4-(Benzofuran-2-yl)phenyl)ethylsulfonamido)pyridine-3-sulfonamide]
6.25	COc1cc(Cl)ccc1CCS(=O)(=O)Nc1ccc(C)cc1S(N)(=O)=O [Example 205, 2-(2-(4-Chloro-2-methoxyphenyl)ethylsulfonamido)-5-methylbenzenesulfonamide]
5.04	COc1cc(Cl)ccc1CCS(=O)(=O)Nc1ccncc1S(N)(=O)=O [Example 206, 4-(2-(4-Chloro-2-methoxyphenyl)ethylsulfonamido)pyridine-3-sulfonamide]
7.01	NS(=O)(=O)c1ccccc1NS(=O)(=O)/C=C/c1ccc(C2=CCCC2)cc1 [Example 207, (E)-2-(2-(4-Cyclopentenylphenyl)vinylsulfonamido)benzenesulfonamide]
7.26	CC(C)(C)C#Cc1ccc(/C=C/S(=O)(=O)Nc2ccccc2S(N)(=O)=O)cc1 [Example 208, (E)-2-(2-(4-(3,3-Dimethylbut-1-ynyl)phenyl)vinylsulfonamido)benzenesulfonamide]
6.66	CC(C)(O)C#Cc1ccc(/C=C/S(=O)(=O)Nc2ccccc2S(N)(=O)=O)cc1 [Example 209, (E)-2-(2-(4-(3-Hydroxy-3-methylbut-1-ynyl)phenyl)vinylsulfonamido)benzenesulfonamide]
6.44	Cc1ccc(NS(=O)(=O)CCc2ccc(C#CC(C)(C)C)cc2)c(S(N)(=O)=O)c1 [Example 210, 2-{2-[4-(3,3-Dimethyl-but-1-ynyl)-phenyl]-ethanesulfonylamino}-5-methyl-benzenesulfonamide]
7.12	CC(C)(C)C#Cc1ccc(CCS(=O)(=O)Nc2ccc(CO)cc2S(N)(=O)=O)cc1 [Example 211, 2-{2-[4-(3,3-Dimethyl-but-1-ynyl)-phenyl]-ethanesulfonylamino}-5-hydroxymethyl-benzenesulfonamide]
7.39	NS(=O)(=O)c1cc(CO)ccc1NS(=O)(=O)CCc1ccc(C#CC2CCCC2)cc1 [Example 212, 2-[2-(4-Cyclopentylethynyl-phenyl)-ethanesulfonylamino]-5-hydroxymethyl-benzenesulfonamide]
6.48	COc1cc(Cl)ccc1CCS(=O)(=O)Nc1ccc(CO)cc1S(N)(=O)=O [Example 213, 2-[2-(4-Chloro-2-methoxy-phenyl)-ethanesulfonylamino]-5-hydroxymethyl-benzenesulfonamide]
5.85	CC(C)(C)C#Cc1ccc(CCS(=O)(=O)Nc2ccsc2S(N)(=O)=O)cc1 [Example 214, 3-{2-[4-(3,3-Dimethyl-but-1-ynyl)-phenyl]-ethanesulfonylamino}-thiophene-2-sulfonic acid amide]
6.13	COc1ncc(-c2cccc(S(=O)(=O)Nc3ccsc3S(N)(=O)=O)c2)cc1Cl [Example 215, 3-[3-(5-Chloro-6-methoxy-pyridin-3-yl)-benzenesulfonylamino]-thiophene-2-sulfonic acid amide]
6.89	NS(=O)(=O)c1ccccc1NS(=O)(=O)/C=C/c1ccc(OC(F)(F)C(F)F)cc1 [Example 216, (E)-2-(2-(4-(1,1,2,2-tetrafluoroethoxy)phenyl)vinylsulfonamido)benzenesulfonamide]
6.96	NS(=O)(=O)c1ccccc1NS(=O)(=O)/C=C/c1ccccc1OC(F)F [Example 217, (E)-2-(2-(2-(difluoromethoxy)phenyl)vinylsulfonamido)benzenesulfonamide]
6.74	NS(=O)(=O)c1ccccc1NS(=O)(=O)/C=C/c1ccc(-c2ccc(C(F)(F)F)cc2)cc1 [Example 218, (E)-2-(2-(4′-(trifluoromethyl)biphenyl-4-yl)vinylsulfonamido)benzenesulfonamide]
6.02	CC(C)Oc1ccccc1/C=C/S(=O)(=O)Nc1ccccc1S(N)(=O)=O [Example 219, (E)-2-(2-(2-isopropoxyphenyl)vinylsulfonamido)benzenesulfonamide]
6.57	CSc1ccccc1/C=C/S(=O)(=O)Nc1ccccc1S(N)(=O)=O [Example 220, (E)-2-(2-(2-(methylthio)phenyl)vinylsulfonamido)benzenesulfonamide]
6.38	NS(=O)(=O)c1ccccc1NS(=O)(=O)/C=C/c1ccccc1OC(F)(F)F [Example 221, (E)-2-(2-(2-(trifluoromethoxy)phenyl)vinylsulfonamido)benzenesulfonamide]

pIC50	Compound
6.42	CCOc1ccccc1/C=C/S(=O)(=O)Nc1ccccc1S(N)(=O)=O [Example 222, 2-[2-(2-ethoxy-phenyl)-ethenesulfonylamino]-benzenesulfonamide]
6.38	NS(=O)(=O)c1ccccc1NS(=O)(=O)CCc1ccc(OC(F)(F)C(F)F)cc1 [Example 223, 2-(2-(4-(1,1,2,2-tetrafluoroethoxy)phenyl)ethylsulfonamido)benzenesulfonamide]
7.00	NS(=O)(=O)c1ccccc1NS(=O)(=O)CCc1ccc(-c2ccc(C(F)(F)F)cc2)cc1 [Example 224, 2-(2-(4′-(trifluoromethyl)biphenyl-4-yl)ethylsulfonamido)benzenesulfonamide]
5.20	NS(=O)(=O)c1ccccc1NS(=O)(=O)/C=C/c1ccccc1O [Example 225, 2-[2-(2-Hydroxy-phenyl)-ethenesulfonylamino]-benzenesulfonamide]
5.89	NS(=O)(=O)c1ccc(Cl)cc1NS(=O)(=O)CCc1ccc(OC(F)F)cc1 [Example 226, 4-Chloro-2-(2-(4-(difluoromethoxy)phenyl)ethylsulfonamido)benzenesulfonamide]
5.72	COc1ccccc1CCS(=O)(=O)Nc1cc(Cl)ccc1S(N)(=O)=O [Example 227, 4-Chloro-2-(2-(2-methoxyphenyl)ethylsulfonamido)benzenesulfonamide]
6.89	COc1cc(Cl)ccc1CCS(=O)(=O)Nc1cc(Cl)ccc1S(N)(=O)=O [Example 228, 4-Chloro-2-(2-(4-chloro-2-methoxyphenyl)ethylsulfonamido)benzenesulfonamide]
5.26	NS(=O)(=O)c1cc(F)cc(F)c1NS(=O)(=O)CCc1ccc(Cl)c(Cl)c1 [Example 229, 2-(2-(3,4-Dichlorophenyl)ethylsulfonamido)-3,5-difluorobenzenesulfonamide]
5.21	COc1cc(NS(=O)(=O)c2cccc(Cl)c2Cl)c(S(N)(=O)=O)cc1F [Example 230, 2,3-Dichloro-N-(4-fluoro-5-methoxy-2-sulfamoylphenyl)benzenesulfonamide]
6.89	NS(=O)(=O)c1ccc(Cl)cc1NS(=O)(=O)CCc1ccc(Cl)c(Cl)c1 [Example 231, 4-Chloro-2-(2-(3,4-dichlorophenyl)ethylsulfonamido)benzenesulfonamid]
6.06	NS(=O)(=O)c1cc(Cl)c(F)cc1NS(=O)(=O)CCc1ccc(Cl)cc1 [Example 232, 5-Chloro-2-(2-(4-chlorophenyl)ethylsulfonamido)-4-fluorobenzenesulfonamide]
6.82	NS(=O)(=O)c1cc(Cl)c(F)cc1NS(=O)(=O)CCc1ccc(Cl)c(Cl)c1 [Example 233, 5-Chloro-2-(2-(3,4-dichlorophenyl)ethylsulfonamido)-4-fluorobenzenesulfonamide]
5.21	NS(=O)(=O)c1c(NS(=O)(=O)CCc2ccc(-c3ccco3)cc2)ccc2c1CCC2 [Example 234, 5-(2-(4-(Furan-2-yl)phenyl)ethylsulfonamido)-2,3-dihydro-1H-indene-4-sulfonamide]
5.21	NS(=O)(=O)c1cc2c(cc1NS(=O)(=O)CCc1ccc(-c3ccco3)cc1)CCC2 [Example 235, 6-(2-(4-(Furan-2-yl)phenyl)ethylsulfonamido)-2,3-dihydro-1H-indene-5-sulfonamid]
5.34	NS(=O)(=O)c1c(NS(=O)(=O)CCc2ccc(Cl)c(Cl)c2)ccc2c1CCC2 [Example 236, 5-(2-(3,4-Dichlorophenyl)ethylsulfonamido)-2,3-dihydro-1H-indene-4-sulfonamide]
5.22	CNS(=O)(=O)c1ccccc1NS(=O)(=O)c1cccc(-c2ccc(Cl)c(Cl)c2)c1 [Example 239, 2-[[3-(3,4-Dichlorophenyl)phenyl]sulfonylamino]-N-methyl-benzenesulfonamide]
7.51	NS(=O)(=O)c1ccccc1NS(=O)(=O)CCc1ccc(C#Cc2ccc(C(F)(F)F)cc2)nc1 [Example 240, 2-(2-(6-((4-(Trifluoromethyl)phenyl)ethynyl)pyridin-3-yl)ethylsulfonamido)benzenesulfonamide]
